We go through one molecule from patent US9034368B2 (PUREPHARM INC., priority 2002, dated 2015).

One data set concerns excessive sweating. As to conditions: patient 3: topical application (1% pads and 1% spray).
Data set [1] relates to hyperhidrosis and gustatory sweating. As to conditions: cited from earlier work.
For data set [2] the following is noted: Hay 1982; roll-on solution, distilled water; concentrations above 2%; cited from earlier work.

On to `C[N+]1(C)CCC(OC(=O)C(O)(c2ccccc2)C2CCCC2)C1` (stereo not shown) [glycopyrrolate], for which the side effects entry in the data set with excessive sweating was “not experienced any side effects”. Besides, the “efficacy of topical concentration” value in data set [1] (0.1% concentration, Hays 1978) is listed as “ineffective”. In addition, in data set [1] (Hay 1982, 2 & 4% HEB cream base), the “efficacy of solution versus cream” value is “Solution worked better than”. Also, in data set [1] (May 1989, 0.5 & 2.0% roll-on, 2.0% cream, almost all patients), the relief of sweating entry is “total or partial relief. Placebo”. The efficacy result in data set [1] (Seukeran 1998, 0.50% aqueous solution) was “Worked well”. The “concentration after which mild side effects begin to present themselves” value in data set [1] (topical, Hays 1978) was more than 4%. The crystallisation from solution result in data set [2] was “Glycopyrrolate crystalized out”.
